Test [1] relates to human umbilical vein endothelial cells (PUMC-HUVEC-T1). Nature of the test: HUVEC cell anti-proliferation assay (MTT). In kind it is cell-based. The following applies: for viability at 1 µM / viability at 10 µM / IC50: Homo sapiens, 72 h, MTT; for viability at 1 µM / viability at 10 µM: read-out: Relative Cell Viability (%) ± SD (n = 3); for viability at 10 µM / inhibition ratio in HUVEC: 10 µM; for IC50: n = 3, read-out: IC50, HUVEC relative cell viability. The text has this:
A major mediator of VEGF-driven responses in endothelial cells is VEGFR-2, which is considered to play a decisive role in both physiologic and pathologic angiogenesis. The homogeneous time-resolved fluorescence (HTRF) method was used in the assay that determined the inhibitory activities of target compounds against VEGFR-2 kinase. Owing to VEGFR-2 overexpression in human umbilical vein endothelial cells (HUVEC), these target compounds were further evaluated in vitro anti-proliferation activity against HUVEC. MTT assay was used in the cell assay. […] In order to ensure the repeatability of the activity test, we choose to complete biological evaluation under the dark condition.
SV40T transforms human umbilical vein endothelial cells (PUMC-HUVEC-T1) were gifts from Dr. Lihua Ding (Institute of Biotechnology, Beijing, China). MTT Cell Proliferation and Cytotoxicity Assay Kit (#GK-5605, Genview) was used to measure cell viability and proliferation. Metabolically active cells in part by the action of dehydrogenase enzymes reduced the yellow tetrazolium MTT to generate purple reducing equivalents such as NADH and NADPH. The resulting intracellular purple formazan can be solubilized and quantified by spectrophotometer.
For MTT assay, cells were seeded into separate 96-well plates at 5000 cells/well and cultured in an incubator containing 5% CO2 at 37 °C for 24 h. Subsequently, target compounds were dissolved into different concentrations with culture medium from 10 mM stock solutions in DMSO, respectively. Then target compounds were added and incubated at 37 °C for 72 h. All assays were performed in triplicate. The untreated groups were used as a vehicle of control. Following the 72-h incubation, discarded culture medium and washed with PBS once time followed by adding 180 µL of fresh culture medium. Cell viability was quantified with MTT assay. According to the manufacturer instructions, 20 µL of MTT solution that was previously thawed and equilibrated to room temperature was added to each well and plates were incubated at 37 °C for 4 h. Termination of culture, the supernatant was carefully discarded and added 150 µL of Formazan dissolution for 10 min vibration at room temperature. The OD value of each well was measured by a spectrophotometer at 490 nm and the inhibitory rates expressed as percentages of the vehicle control (100%). Data processing: ratio = Vsample/Vcontrol × 100%. Vsample is for compound treatment group while Vcontrol is for solvent control group. The GraphPad Prism 5.0 software was used to draw nonlinear regression model and calculated IC50 values.

The target of another test is T1, VEGFR-2 (KDR) kinase (Homo sapiens, UniProt P35968).
T1 construct: purchased Carna Biosciences
T1 sequence (P35968 20-1356): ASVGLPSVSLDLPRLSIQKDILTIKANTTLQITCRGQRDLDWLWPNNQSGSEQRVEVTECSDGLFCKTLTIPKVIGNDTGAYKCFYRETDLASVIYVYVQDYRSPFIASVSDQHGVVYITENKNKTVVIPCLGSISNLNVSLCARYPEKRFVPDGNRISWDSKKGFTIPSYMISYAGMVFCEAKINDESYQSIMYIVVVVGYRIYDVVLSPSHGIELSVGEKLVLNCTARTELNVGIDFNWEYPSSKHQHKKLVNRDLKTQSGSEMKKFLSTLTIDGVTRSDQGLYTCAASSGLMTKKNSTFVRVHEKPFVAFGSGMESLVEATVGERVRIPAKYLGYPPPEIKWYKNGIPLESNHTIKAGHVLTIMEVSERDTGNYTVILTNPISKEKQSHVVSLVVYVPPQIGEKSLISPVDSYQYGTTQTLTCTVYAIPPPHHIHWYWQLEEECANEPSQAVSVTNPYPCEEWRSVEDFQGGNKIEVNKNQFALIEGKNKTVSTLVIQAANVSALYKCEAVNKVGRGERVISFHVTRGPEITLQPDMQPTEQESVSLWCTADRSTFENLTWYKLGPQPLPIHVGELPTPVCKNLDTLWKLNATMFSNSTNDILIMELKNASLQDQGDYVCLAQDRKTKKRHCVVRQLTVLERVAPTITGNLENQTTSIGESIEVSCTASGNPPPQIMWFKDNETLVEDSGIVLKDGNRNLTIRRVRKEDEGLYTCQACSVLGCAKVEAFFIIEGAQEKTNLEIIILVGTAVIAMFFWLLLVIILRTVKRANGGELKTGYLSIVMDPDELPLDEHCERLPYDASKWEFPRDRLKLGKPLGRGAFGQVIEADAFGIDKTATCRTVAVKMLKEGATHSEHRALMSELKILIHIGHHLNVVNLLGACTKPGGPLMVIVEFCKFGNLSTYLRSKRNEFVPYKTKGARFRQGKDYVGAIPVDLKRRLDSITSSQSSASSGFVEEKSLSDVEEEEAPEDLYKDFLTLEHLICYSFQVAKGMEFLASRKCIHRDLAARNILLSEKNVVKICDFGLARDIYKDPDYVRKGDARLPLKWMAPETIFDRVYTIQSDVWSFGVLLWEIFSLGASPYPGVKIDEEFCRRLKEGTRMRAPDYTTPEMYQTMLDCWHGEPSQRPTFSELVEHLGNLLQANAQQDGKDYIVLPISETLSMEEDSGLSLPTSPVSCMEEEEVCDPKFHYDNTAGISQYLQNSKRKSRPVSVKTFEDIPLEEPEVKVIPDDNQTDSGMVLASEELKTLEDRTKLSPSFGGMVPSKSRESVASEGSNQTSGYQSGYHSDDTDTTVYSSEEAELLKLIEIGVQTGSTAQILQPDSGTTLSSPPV
Kind of test: VEGFR-2 kinase assay (HTRF KinEASE-TK). In kind it is biochemical. The following applies: for IC50: HTRF, ATP 3 µM, 40 min, dark condition, n = 3. (TR-FRET usually uses a lanthanide donor and a delayed reading to cut background.)

For orientation: viability means a read-out of living cells in per cent, often relative to untreated cells. On to `CNC(=O)c1ccccc1Sc1ccc2c(/C=C/c3ccccn3)n[nH]c2c1` [Axitinib, reference compound], for which, in test [1], the viability at 1 µM was 80 ± 6.64% and the viability at 10 µM is 53.2 ± 9.11%.
As for `CNC(=O)c1ccccc1Sc1ccc2c(N=Nc3c(OC)cc(N)cc3OC)n[nH]c2c1` [TM2, 2-(3-((4-amino-2,6-dimethoxyphenyl)diazenyl)-1H-indazol-6-ylthio)-N-methylbenzamide], in test [1], the “inhibition ratio in HUVEC” value is given as at most 20%, the viability at 1 µM amounted to 107 ± 1.29% and the viability at 10 µM is 94.4 ± 5.01%.
The IC50 is the concentration at which inhibition is half-maximal. Turning to `CNC(=O)c1ccccc1Sc1ccc2c(N=Nc3ccc(N)cc3OC)n[nH]c2c1` [TM3, 2-(3-((4-amino-2-methoxyphenyl)diazenyl)-1H-indazol-6-ylthio)-N-methylbenzamide], the IC50 on VEGFR-2 (KDR) kinase was found to be 195 ± 1.11 nM. Moreover, on VEGFR-2 (KDR) kinase (relative to TM2), the “increase of VEGFR-2 activity compared with TM2” value was “more than ten times”. For the same compound, in test [1], the “inhibition ratio in HUVEC” value is recorded as at most 20%, the viability at 1 µM worked out at 125 ± 8.92% and the viability at 10 µM came to 84.1 ± 6.83%.
With `CNC(=O)c1ccccc1Sc1ccc2c(N=Nc3ccc(N(C)C)cc3)n[nH]c2c1` [TM4, 2-(3-((4-(dimethylamino)phenyl)diazenyl)-1H-indazol-6-ylthio)-N-methylbenzamide], the IC50 at VEGFR-2 (KDR) kinase is 135 ± 1.25 nM. Also, in test [1], the “inhibition ratio in HUVEC” value is given as at most 20%, the viability at 1 µM is 94.1 ± 1.89% and the viability at 10 µM stood at 82.8 ± 5.32%.
Compound `CNC(=O)c1ccccc1Sc1ccc2c(N=Nc3cccn3C)n[nH]c2c1` [TM6, N-methyl-2-(3-((1-methyl-1H-pyrrol-2-yl)diazenyl)-1H-indazol-6-ylthio)benzamide] returned an IC50 against VEGFR-2 (KDR) kinase of 2290 ± 1.17 nM. Further, in test [1], the “inhibition ratio in HUVEC” value is on record as “exceeding 60%”, the viability at 1 µM worked out at 97 ± 10.4%, the viability at 10 µM was 19.3 ± 3.82% and the IC50 turned out to be 5030 nM.
With `CNC(=O)c1ccccc1Sc1ccc2c(N=Nc3ccc[nH]3)n[nH]c2c1` [TM7, 2-(3-((1H-pyrrol-2-yl)diazenyl)-1H-indazol-6-ylthio)-N-methylbenzamide], inhibition against VEGFR-2 (KDR) kinase was half-maximal at 123 ± 1.08 nM (IC50). In test [1], the “inhibition ratio in HUVEC” value is on record as “exceeding 60%”, the viability at 1 µM is 84.4 ± 4.35%, the viability at 10 µM was found to be 39.1 ± 2.49% and the IC50 came out at 5730 nM.
In turn, `CNC(=O)c1ccccc1Sc1ccc2c(N=Nc3cc(C)n(C)c3C)n[nH]c2c1` [TM8, N-methyl-2-(3-((1,2,5-trimethyl-1H-pyrrol-3-yl)diazenyl)-1H-indazol-6-ylthio)benzamide] showed an IC50 at VEGFR-2 (KDR) kinase of 158 ± 1.14 nM. Moreover, in test [1], the viability at 1 µM came to 92.3 ± 9.05% and the viability at 10 µM came out at 61.3 ± 10.9%.
In turn, `CNC(=O)c1ccccc1Sc1ccc2c(N=Nc3[nH]c(C)cc3C)n[nH]c2c1` [TM9, 2-(3-((3,5-dimethyl-1H-pyrrol-2-yl)diazenyl)-1H-indazol-6-ylthio)-N-methylbenzamide] had an IC50 against VEGFR-2 (KDR) kinase of 201 ± 1.26 nM. Further, in test [1], the viability at 1 µM turned out to be 68.54 ± 0.29%, the viability at 10 µM was determined as 32.2 ± 1.99% and the IC50 was found to be 2180 nM.
With `CNC(=O)c1ccccc1Sc1ccc2c(N=Nc3cc(C)[nH]c3C)n[nH]c2c1` [TM10, 2-(3-((2,5-dimethyl-1H-pyrrol-3-yl)diazenyl)-1H-indazol-6-ylthio)-N-methylbenzamide], on VEGFR-2 (KDR) kinase, the midpoint of inhibition, the IC50, lay at 44 ± 1.15 nM. For the same compound, in test [1], the viability at 1 µM was 99.29 ± 0.78% and the viability at 10 µM was 66.2 ± 4.43%.
In turn, `CNC(=O)c1ccccc1Sc1ccc2c(N=Nc3ccc(C)[nH]3)n[nH]c2c1` [TM11, N-methyl-2-(3-((5-methyl-1H-pyrrol-2-yl)diazenyl)-1H-indazol-6-ylthio)benzamide] showed a 50% inhibitory concentration (IC50) at VEGFR-2 (KDR) kinase of 330 ± 1.14 nM. For the same compound, in test [1], the “inhibition ratio in HUVEC” value is “exceeding 60%”, the viability at 1 µM turned out to be 67.03 ± 0.19%, the viability at 10 µM was 31 ± 0.61% and the IC50 amounted to 2150 nM.

(Values after paper PMC6017704 (Molecules : A Journal of Synthetic Chemistry and Natural …, 2018).)
